Experimental findings from patent publication US4904660A, “Histidine derivatives as superior renin inhibitors” (Yamanouchi Pharmaceutical Co., Ltd., priority 1987, dated 1990) are described below.

SMILES strings stand for the structures.

The assay concerns the target T1, human plasma renin (Homo sapiens, UniProt P00797).
T1 construct: Into human plasma; from tissue; host or cells: human plasma
T1 sequence (P00797 67-406): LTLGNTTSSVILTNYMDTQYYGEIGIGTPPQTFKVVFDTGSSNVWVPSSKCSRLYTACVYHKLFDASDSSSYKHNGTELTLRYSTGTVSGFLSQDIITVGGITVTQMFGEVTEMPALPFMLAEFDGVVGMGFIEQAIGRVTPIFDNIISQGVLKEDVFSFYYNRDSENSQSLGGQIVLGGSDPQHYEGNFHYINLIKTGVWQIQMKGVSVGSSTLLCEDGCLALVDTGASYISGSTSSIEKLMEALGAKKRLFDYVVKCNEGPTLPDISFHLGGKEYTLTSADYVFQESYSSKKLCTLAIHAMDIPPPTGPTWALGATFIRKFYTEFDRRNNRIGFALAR
Kind of assay: Inhibiting effect to human plasma renin. In kind it is biochemical. As to conditions: angiotensin I formation by radio-immunoassay, 37° C., 2 hours, pH4.6, read-out: IC50 /human plasma (50% inhibiting concentration). As to the method:
(1) Inhibiting effect to human plasma renin.
Into human plasma (250 μl) having 0.5 ng/ml/hr (37° C.)-angiotensin I forming activity was added 225 μl of an enzyme-inhibitor (BAL, […], pH4.6) and 25 μl of a solution of the test compound in dimethylsulfoxide, and the mixture was stirred. Some portion of the stirred mixture was subjected to incubation at 37° C. for 2 hours, and the rest of the mixture was left at 4° C. Taking 100 μl of each of the mixtures, by measuring the difference of the angiotensin I forming amount by radio-immunoassay at 37° C. and 4° C., the 50% inhibiting concentration IC50 (M) was calculated.
Take `Cn1nnnc1SCC(O)[C@H](CC1CCCCC1)NC(=O)[C@H](Cc1cnc[nH]1)NC(=O)C(CC(=O)N1CCOCC1)Cc1cccc2ccccc12` (stereo partly drawn) [Example 7, (2RS,3S)-3-[N-[1,4-dioxo-4-morpholino-2-(1-naphthylmethyl)butyl-L-histidylamino)]-4-cyclohexyl-1-(1-methyl-5-tetrazolylthio]-2-butanol]: the IC50 was 0.5 nM.
Consider `Cn1nnnc1SCC(O)[C@H](CC1CCCCC1)NC(=O)[C@H](Cc1cnc[nH]1)NC(=O)[C@H](Cc1ccccc1)NC(=O)OC(C)(C)C` (stereo partly drawn) [Example 9], for which the IC50 amounted to 4 nM.
As to `CC(C)OC(=O)C(O)[C@H](CC1CCCCC1)NC(=O)[C@H](Cc1c[nH]cn1)NC(=O)C(CC(=O)N1CCOCC1)Cc1cccc2ccccc12` (stereo partly drawn) [Example 40], the IC50 turned out to be 4 nM.
